Measurements published in patent US20090076047A1, “2-Substituted Hydroxylaminopyrimidine, Method for the Production and the Use Thereof in the Form of Pesticides” (priority 2005, published 2009).

What was measured:
Pyricularia oryzae = type: cell-based; conditions: 125 ppm, day 7 after inoculation, absorption at 405 nm; active compound-free control = 100%
Septoria tritici = assay: Microtest No. 1: activity against the Septoria leaf spot pathogen Septoria tritici in the microtiter test; type: cell-based; conditions: 125 ppm, day 7 after inoculation, absorption at 405 nm; active compound-free control = 100%
Procedure: Microtest No. 1—Activity Against the Septoria Leaf Spot Pathogen Septoria tritici in the Microtiter Test The stock solution was pipetted into a microtiter plate (MTP) and diluted with an aqueous malt-based fungus nutrient medium to the stated active compound concentration. An aqueous spore suspension of Septoria tritici was then added. The plates were placed in a water vapor-saturated chamber at temperatures of 18° C. On day 7 after the inoculation, the MTPs were measured in an absorption photometer at 405 nm. The measured parameters were compared to the growth of the active compound-free control variant (100%) and the fungus- and active compound-free blank value to determine the relative growth in % of the pathogens in the individual active compounds.

Puccinia recondita = assay: Curative activity against brown rust of wheat caused by Puccinia recondita (greenhouse); type: in vivo; conditions: 63 ppm, wheat sprayed 1 day after inoculation (curative), 7 days; untreated control 90% infected
Procedure: The solution was then made up to 100 ml with water. This stock solution was diluted to the active compound concentration stated below using the solvent/emulsifier/water mixture described. Curative Activity Against Brown Rust of Wheat Caused by Puccinia recondita Leaves of potted wheat seedlings of the cultivar “Kanzler” were inoculated with a spore suspension of brown rust (Puccinia recondita). The pots were then placed into a chamber with high atmospheric humidity (90-95%) at 20-22° C. for 24 hours. During this time, the spores germinated and the germ tubes penetrated into the leaf tissue. The next day, the infected plants were sprayed to runoff point with the active compound solution described above having the concentration of active compound stated below. After the spray coating had dried on, the test plants were cultivated in a greenhouse at temperatures between 20 and 22° C. and at 65 to 70% relative atmospheric humidity for 7 days. The extent of the rust fungus development on the leaves was then determined.

[1] = test system: Erysiphe [syn. Blumeria] graminis forma specialis. tritici; assay: Activity against mildew of wheat caused by Erysiphe [syn. Blumeria] graminis forma specialis tritici (greenhouse); type: in vivo, Erysiphe graminis f. sp. tritici; conditions: 250 ppm, wheat seedlings, protective, assessed after 7 days, % of total leaf area; control 90% infected

| Structure (SMILES) | melting point | relative growth (Pyricularia oryzae) | relative growth (Septoria tritici) | also measured |
| --- | --- | --- | --- | --- |
| CONC(=N)c1nc(Cl)c(-c2c(F)cc(F)cc2F)c(N2CCCO2)n1 [Compound 17, N-Methoxy-4-chloro-6-(isoxazolidin-2-yl)-5-(2,4,6-trifluorophenyl)-2-pyrimidinecarboximidamide] | 192 to 193 °C |  |  |  |
| CC1CCCN(c2nc(-n3cncn3)nc(Cl)c2-c2c(F)cc(F)cc2F)O1 (centres unmarked) [Compound 21, 4-Chloro-6-(6-methyltetrahydro-2H-(1,2)-oxazin-2-yl)-2-(1,2,4-triazol-1-yl)-5-(2,4,6-trifluorophenyl)pyrimidine] | 141 to 143 °C |  |  |  |
| CON(c1nc(C#N)nc(Cl)c1-c1c(F)cccc1Cl)C(C)C [Compound 32] |  | 0% | 0% |  |
| CON=C(N)c1nc(Cl)c(-c2c(F)cccc2Cl)c(N(CC2CC2)OC)n1 [Compound 33] |  |  |  | infection (Puccinia recondita): 0% |
| CON(CC1CC1)c1nc(C#N)nc(Cl)c1-c1c(F)cccc1F [Compound 35] |  |  |  | infection [1]: 5% |
| COc1nc(Cl)c(-c2c(F)cc(F)cc2F)c(N(CC2CC2)OC)n1 [Compound 40] |  | 0% | 0% |  |
